# Source: US11059834B2, “Macrocyclic immunomodulators” (CHEMOCENTRYX, INC., priority 2017, dated 2021)
# Molecular target: human PD-L1 / Human PD-1 (Homo sapiens (Human), UniProt Q9NZQ7)
# Assay: Enzyme-Linked Immunosorbent Assay (ELISA), PD-1/PD-L1 binding
# Conditions: plate-coated human PD-L1, biotinylated human PD-1, absorbance at 450 nm
# Method: 96 Well plates were coated with 1 μg/mL of human PD-L1 (obtained from R&D) in PBS overnight at 4° C. The wells were then blocked with 2% BSA in PBS (W/V) with 0.05% TWEEN-20 for 1 hour at 37° C. The plates were washed 3 times with PBS/0.05% TWEEN-20 and the compounds were serial diluted (1:5) in dilution medium and added to the ELISA plates. Human PD-1 and biotin 0.3 μg/mL (ACRO Biosystems) were added and incubated for 1 hour at 37° C. then washed 3 times with PBS/0.05% TWEEN-20. A second block was performed with 2% BSA in PBS (W/V)/0.05% TWEEN-20 for 10 min at 37° C. and was washed 3 times with PBS/0.05% TWEEN-20. Streptavidin—HRP was added for 1 hour at 37° C. then washed 3 times with PBS/0.05% TWEEN-20. TMB substrate was added and reacted for 20 min at 37° C. A stop solution (2 N aqueous H2SO4) was added. The absorbance was read at 450 nm using a micro-plate spectrophotometer.
# Compounds in Table 1 were prepared by methods as described in the Examples and evaluated according to the assay above.
# Sequence of human PD-L1 / Human PD-1 (Q9NZQ7 19-239): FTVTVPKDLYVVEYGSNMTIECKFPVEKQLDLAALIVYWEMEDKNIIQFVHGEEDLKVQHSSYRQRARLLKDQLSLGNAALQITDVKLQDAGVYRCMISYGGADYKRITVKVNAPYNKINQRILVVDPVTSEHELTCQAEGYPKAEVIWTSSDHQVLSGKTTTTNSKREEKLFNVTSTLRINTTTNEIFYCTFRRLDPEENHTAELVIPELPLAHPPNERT
structure (smiles),measurement,value
Cc1c(COc2cc3c(cc2Cl)CO[C@H](C(=O)O)CCNC(=O)c2cncc(c2)CN3)cccc1-c1ccccc1 [Compound 1.009],IC50,0.5 to 20 µM
